Values quoted from earlier work in patent publication US20240408179A1, “ORAL DELIVERY OF THERAPEUTIC AGENTS” (GUANGZHOU DAZHOU BIOMEDICINE LTD., priority 2021, published 2024).

Experiments:
[1] = system: T2D patients with high risk of cardiovascular disease events; details: empagliflozin group versus placebo group
[2] = humans, co-formulated with SNAC

Molecule	relative risk reduction in death from cardiovascular causes [1]	oral bioavailability (BA %) [2]
OC[C@H]1O[C@@H](c2ccc(Cl)c(Cc3ccc(O[C@H]4CCOC4)cc3)c2)[C@H](O)[C@@H](O)[C@@H]1O [empagliflozin]	38%	–
semaglutide	–	0.5-1%
